This passage reports IC50 and inhibition results from ChEMBL document CHEMBL1137464, “Novel steroidal saponins, Sch 725737 and Sch 725739, from a marine starfish, Novodinia antillensis” (Bioorg Med Chem Lett, 2007).

The target in assay [1] is T1, Sodium channel protein type 10 subunit alpha (Homo sapiens, UniProt Q9Y5Y9). As to the kind of experiment: Inhibition of sodium channel NaV1.8 expressed in rat ND7/23 cells by FLIPR assay. The format is cell-based.
Target sequence in this assay (Q9Y5Y9 whole entry): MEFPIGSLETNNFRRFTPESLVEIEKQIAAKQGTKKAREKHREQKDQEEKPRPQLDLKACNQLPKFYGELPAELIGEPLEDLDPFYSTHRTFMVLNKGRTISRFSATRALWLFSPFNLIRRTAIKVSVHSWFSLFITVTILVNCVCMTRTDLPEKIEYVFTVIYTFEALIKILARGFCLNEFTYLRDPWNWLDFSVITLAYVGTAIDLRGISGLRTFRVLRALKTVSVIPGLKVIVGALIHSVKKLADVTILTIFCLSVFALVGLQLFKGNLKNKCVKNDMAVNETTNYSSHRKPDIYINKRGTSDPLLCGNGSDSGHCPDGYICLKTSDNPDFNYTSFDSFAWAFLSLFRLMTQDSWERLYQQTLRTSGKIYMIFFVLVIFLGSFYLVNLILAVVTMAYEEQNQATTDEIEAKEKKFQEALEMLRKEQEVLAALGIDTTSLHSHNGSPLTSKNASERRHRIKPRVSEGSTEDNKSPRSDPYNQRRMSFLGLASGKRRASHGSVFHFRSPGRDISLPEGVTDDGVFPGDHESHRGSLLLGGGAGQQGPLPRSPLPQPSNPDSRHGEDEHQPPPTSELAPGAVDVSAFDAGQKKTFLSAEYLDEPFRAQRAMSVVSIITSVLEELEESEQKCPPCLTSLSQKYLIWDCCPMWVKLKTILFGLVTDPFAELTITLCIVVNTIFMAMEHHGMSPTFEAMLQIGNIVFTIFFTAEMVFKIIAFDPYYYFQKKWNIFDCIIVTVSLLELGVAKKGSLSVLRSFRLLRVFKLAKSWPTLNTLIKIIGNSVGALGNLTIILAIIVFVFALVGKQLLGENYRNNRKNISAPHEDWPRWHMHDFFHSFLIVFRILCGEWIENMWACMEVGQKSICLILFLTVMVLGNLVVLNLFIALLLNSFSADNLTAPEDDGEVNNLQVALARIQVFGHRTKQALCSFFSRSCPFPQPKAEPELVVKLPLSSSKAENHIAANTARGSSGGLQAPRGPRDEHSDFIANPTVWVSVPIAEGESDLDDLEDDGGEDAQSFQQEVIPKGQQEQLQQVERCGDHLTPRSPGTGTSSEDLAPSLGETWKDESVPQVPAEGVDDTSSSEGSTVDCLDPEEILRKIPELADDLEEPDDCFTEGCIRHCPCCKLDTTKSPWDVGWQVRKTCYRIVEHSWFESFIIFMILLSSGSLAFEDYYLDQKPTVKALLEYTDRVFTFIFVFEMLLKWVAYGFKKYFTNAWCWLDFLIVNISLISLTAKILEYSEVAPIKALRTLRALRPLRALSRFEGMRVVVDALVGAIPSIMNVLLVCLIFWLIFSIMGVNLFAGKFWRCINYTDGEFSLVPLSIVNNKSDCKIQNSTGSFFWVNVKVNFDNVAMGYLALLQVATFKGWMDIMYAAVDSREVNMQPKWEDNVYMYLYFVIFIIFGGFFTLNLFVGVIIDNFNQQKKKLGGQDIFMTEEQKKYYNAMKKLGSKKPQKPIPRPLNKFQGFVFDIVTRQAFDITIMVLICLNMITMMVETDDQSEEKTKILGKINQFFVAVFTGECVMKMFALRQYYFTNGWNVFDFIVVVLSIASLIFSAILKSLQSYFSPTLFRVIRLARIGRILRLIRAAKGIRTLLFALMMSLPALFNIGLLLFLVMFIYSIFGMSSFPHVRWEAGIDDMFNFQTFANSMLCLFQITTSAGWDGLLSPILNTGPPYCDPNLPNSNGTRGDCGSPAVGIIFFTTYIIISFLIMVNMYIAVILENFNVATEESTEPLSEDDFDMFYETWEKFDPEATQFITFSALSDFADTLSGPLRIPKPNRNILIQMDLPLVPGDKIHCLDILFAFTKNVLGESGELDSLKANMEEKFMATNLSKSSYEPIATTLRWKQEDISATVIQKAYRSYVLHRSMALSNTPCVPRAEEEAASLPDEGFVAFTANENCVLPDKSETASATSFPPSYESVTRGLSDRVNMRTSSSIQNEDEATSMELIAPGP
The target of assay [2] is T1, Sodium channel protein type 10 subunit alpha. The assay can be described thus: Inhibition of sodium channel NaV1.8 at 20 ug/mL by HTS assay.
Target sequence in this assay (Q9Y5Y9 whole entry, looked up): as the sequence (Q9Y5Y9 whole entry) above

In the case of `CC(C)CCC[C@@](C)(O)[C@H]1CC[C@H]2[C@@H]3C[C@H](O[C@@H]4O[C@H](C)[C@@H](O)[C@H](O[C@@H]5OC[C@@H](O[C@@H]6O[C@H](C)[C@@H](O[C@@H]7OC[C@H](O)[C@H](O)[C@H]7O)[C@H](O)[C@H]6O[C@@H]6O[C@H](C)[C@H](O)[C@H](O)[C@H]6O)[C@H](O)[C@H]5O[C@@H]5O[C@H](C)[C@@H](O)[C@H](O)[C@H]5O)[C@H]4O)[C@H]4C[C@@H](OS(=O)(=O)O)CC[C@]4(C)C3=CC[C@@]21C`, the midpoint of inhibition in assay [1], the IC50, lay at 9 µM. Also, in assay [2], the inhibition amounted to 88%. `CC(C)CCC[C@@](C)(O)[C@H]1CC[C@H]2[C@@H]3C[C@H](O[C@@H]4O[C@H](C)[C@@H](O)[C@H](O[C@@H]5O[C@H](C)[C@@H](O[C@@H]6O[C@H](C)[C@@H](O[C@@H]7OC[C@H](O)[C@H](O)[C@H]7O)[C@H](O)[C@H]6O[C@@H]6O[C@H](C)[C@H](O)[C@H](O)[C@H]6O)[C@H](O)[C@H]5O[C@@H]5O[C@H](C)[C@@H](O)[C@H](O)[C@H]5O)[C@H]4O)[C@H]4C[C@@H](OS(=O)(=O)O)CC[C@]4(C)C3=CC[C@@]21C` returned an inhibition in assay [2] of 88%.

For orientation: IC50 means the concentration that inhibits the measured activity by half. One may read the inhibition as the relative decrease from the control value, in per cent. Read a low inhibition as little suppression.
